Data from patent US20030134859A1 (SANKYO COMPANY, LIMITED, priority 2000, published 2003).
Read-outs that look alike come from different tables or passages of the source.

How the values were obtained:
Rat white adipocytes = experiment: Inhibition of the differentiation of adipocytes (Oil Red O); format: cell-based; settings: 100 nM test compound, 5 days, Oil Red O ABS550, control = 100%, blank = 0%, Table 3; for activity at 0.1 µM: Rattus norvegicus, Adipocyte, 120 h, read-out: Rate of Differentiation (%)
In short: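 Rat white preadipocytes, 5,000 cells/well, given differentiation medium with compound at 100 nM final (0.1% DMSO) for 5 days at 37 °C. Lipid stained with Oil Red O, eluted in DMSO, read at 550 nm; differentiation % relative to DMSO control (100%) and blank (0%).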

leptin production = experiment: Enhancing activity for leptin production in adipocytes (ELISA); format: cell-based, rat; settings: leptin concentration as % of control group
In short: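 Collagenase-dispersed epididymal adipocytes from 6-week-old male Wistar Imamichi rats, cultured in DMEM/F-12 (1:1) with test compound at final 1 µM, 100 nM, 10 nM or 1 nM (0.1% DMSO) for 24 h at 37 °C, 5% CO2. Leptin in filtrate measured by ELISA; activity = treated/DMSO-control leptin × 100 (%).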

[1] = Rattus norvegicus, Adipocyte, 24 h, 1 μM, read-out: Facilitating activity to produce leptin
[2] = Rattus norvegicus, Adipocyte, 24 h, 10 nm, read-out: Facilitating activity to produce leptin
[3] = Rattus norvegicus, Adipocyte, 24 h, 100 nm, read-out: Facilitating activity to produce leptin

O=C(Nc1ccc(-c2ccc(NC(=S)Nc3cccc(F)c3)cc2)cc1)c1cc([N+](=O)[O-])ccc1Cl [Example 245, N-[4-[4-[(3-Fluorophenyl)aminothiocarbonylamino]phenyl]phenyl]-(2-chloro-5-nitrophenyl)carboxamide]
activity at 0.1 µM (Rat white adipocytes): 36.1% | activity at 1 µM (leptin production; [1]): 111% | activity at 0.01 µM (leptin production; [2]): 111%

CCOC(=O)NC(=S)Nc1ccc(-c2ccc(NC(=O)c3cc([N+](=O)[O-])ccc3Cl)cc2)cc1 [Example 251, N-[4-[4-(Ethoxycarbonylaminothiocarbonylamino)phenyl]phenyl]-(2-chloro-5-nitrophenyl)carboxamide]
activity at 0.1 µM (Rat white adipocytes): 39.9% | activity at 0.01 µM (leptin production; [2]): 111% | activity at 0.1 µM (leptin production; [3]): 107%

O=C(Nc1ccc(-c2ccc(NC(=S)Nc3ccccc3)cc2)cc1)c1cc([N+](=O)[O-])ccc1Cl [Example 252, N-[4-[4-(Phenylaminothiocarbonylamino)phenyl]phenyl]-(2-chloro-5-nitrophenyl)carboxamide]
activity at 0.1 µM (Rat white adipocytes): 36.7% | activity at 1 µM (leptin production; [1]): 108% | activity at 0.01 µM (leptin production; [2]): 110% | activity at 0.1 µM (leptin production; [3]): 113%

O=C(Nc1ccc(-c2ccc(NC(=O)c3cc([N+](=O)[O-])ccc3Cl)cc2)cc1)Nc1ccccc1[N+](=O)[O-] [Example 254, N-[4-[4-(2-Nitrophenylaminocarbonylamino)phenyl]phenyl]-(2-chloro-5-nitrophenyl)carboxamide]
activity at 0.1 µM (Rat white adipocytes): 52.8% | activity at 1 µM (leptin production; Rattus norvegicus, Adipocyte, 1 μM, 24 hr, read-out: Facilitating activity to produce leptin): 109% | activity at 0.01 µM (leptin production; Rattus norvegicus, Adipocyte, 10 nm, 24 hr, read-out: Facilitating activity to produce leptin): 111% | activity at 0.1 µM (leptin production; Rattus norvegicus, Adipocyte, 100 nm, 24 hr, read-out: Facilitating activity to produce leptin): 106%

O=C(NC(=S)NCCc1ccc(NC(=O)c2cc([N+](=O)[O-])ccc2Cl)cc1)c1ccccc1 [Example 271, N-[4-(2-Phenylcarbonylaminothiocarbonylaminoethyl)phenyl]-(2-chloro-5-nitrophenyl)carboxamide]
activity at 0.1 µM (Rat white adipocytes): 45.4% | activity at 0.01 µM (leptin production; [2]): 121% | activity at 0.1 µM (leptin production; [3]): 115%

CCS(=O)(=O)N(c1ccc(-c2ccc(NC(=O)c3cc([N+](=O)[O-])ccc3Cl)cc2)cc1)S(=O)(=O)CC [Example 276, N-[4-[4-(N,N-Diethanesulfonylamino)phenyl]phenyl]-(2-chloro-5-nitrophenyl)carboxamide]
activity at 0.1 µM (Rat white adipocytes): 14.9% | activity at 1 µM (leptin production; [1]): 117% | activity at 0.001 µM (leptin production; Rattus norvegicus, Adipocyte, 24 h, 1 nm, read-out: Facilitating activity to produce leptin): 108% | activity at 0.01 µM (leptin production; [2]): 112% | activity at 0.1 µM (leptin production; [3]): 123%

N-[4-(4-Methylbenzoylamino)phenyl]phenyl]-(2-chloro-5-nitrophenyl)carboxamide [Example 122]
Rate of Differentiation (%) (Rat white adipocytes): 78.4% | Facilitating activity to produce leptin (leptin production; 1 μM, 24 hr): 128.5% | Facilitating activity to produce leptin (leptin production; 100 nm, 24 hr): 128.5%

N-[4-(Benzenesulfonylaminophenyl)phenyl]-(2-chloro-5-nitrophenyl)carboxamide [Example 128]
Rate of Differentiation (%) (Rat white adipocytes): 35.4% | Facilitating activity to produce leptin (leptin production; 1 μM, 24 hr): 137.3% | Facilitating activity to produce leptin (leptin production; 10 nm, 24 hr): 108.8% | Facilitating activity to produce leptin (leptin production; 100 nm, 24 hr): 130.8%

N-[4-[4-(Pyrrolidin-1-ylamino)phenyl]phenyl]-(2-chloro-5-nitrophenyl)carboxamide [Example 171]
Rate of Differentiation (%) (Rat white adipocytes): 43.0% | Facilitating activity to produce leptin (leptin production; 1 μM, 24 hr): 126.7% | Facilitating activity to produce leptin (leptin production; 1 nm, 24 hr): 113.2% | Facilitating activity to produce leptin (leptin production; 10 nm, 24 hr): 115.4% | Facilitating activity to produce leptin (leptin production; 100 nm, 24 hr): 128.1%
